# Assay results: patent US9708368B2, “Linear peptide antibiotics” (priority 2012, dated 2017)
# Square brackets hold non-standard residues; d marks the D form. Peptide text beside a SMILES is read from it. * marks the point of attachment. boroAla((+)-pinanediol) = C[C@H](N*)B1O[C@@H]2C[C@@H]3C[C@@H](C3(C)C)[C@]2(C)O1; X7 = CC1(C)[C@@H]2C[C@H]3OB([C@@H]4CCCN4*)O[C@@]3(C)[C@H]1C2; Biphenylcarbonyl(4'-Bu) = CCCCc1ccc(-c2ccc(C(=O)*)cc2)cc1; X11 = CC[C@H](N*)B1OC2C[C@@H]3C[C@@H](C3(C)C)[C@]2(C)O1; X1 = C[C@H](N*)B1OC2C[C@@H]3C[C@@H](C3(C)C)[C@]2(C)O1; Benzoyl(4-(4-Cl-Ph)) = O=C(c1ccc(-c2ccc(Cl)cc2)cc1)*; NMeT = CN[C@H](C(=O)O)[C@@H](C)O; Hpg = N[C@H](C(=O)O)c1ccc(O)cc1; Tle = CC(C)(C)[C@H](N)C(=O)O; Lauroyl = CCCCCCCCCCCC(=O)*; Decanoyl = CCCCCCCCCC(=O)*; boroAla = C[C@H](N*)B(O)O; Abu = CC[C@H](N)C(=O)O; βAla = NCCC(=O)O
# Legend:
# [1] = system: Escherichia coli strain MC4100 IMP-4213, which harbors an LptD mutation; conditions: Method B; E. coli MC4100 IMP-4213 (LptD mutation); 35° C., 22 hours
# How it was run: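 Two-fold serial dilutions of compound inoculated at final OD600 0.0005, incubated static at 35 °C for 22 h, and growth read visually.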
# [2] = system: methicillin resistant Staphylococcus aureus (MRSA) strain USA300 (NRS384); conditions: Method B, 35° C., 22 hours
# Method: In vitro antimicrobial activity of each compound was determined by measuring minimal inhibitor concentrations (MICs) using the broth micro-dilution technique as approved by the Clinical and Laboratory Standards Institute (CLSI). […] Bacterial inocula were prepared by scraping cells into 1 mL of testing media (cation adjusted Mueller Hinton Broth supplemented with 0.002% v/v Tween-80) and diluting to a final OD600 nm of 0.01.
# Test compounds were prepared in DMSO at a concentration of 10 mg/ml. […] Bacterial inocula were added to the two fold serial dilutions of test compounds to a final density of OD OD600 nm of 0.0005 and incubated stationarily at 35° C. for 22 hours, after which the plates were examined visually.
# S. aureus SPase = S. aureus SPase (Staphylococcus aureus, UniProt P0A070); assay: biochemical
# E. coli SPase = E. coli SPase (Escherichia coli, UniProt P00803); assay: Biochemical SPase activity assay (fluorogenic peptide substrate), E. coli enzyme
# Sequence of E. coli SPase (P00803 whole entry): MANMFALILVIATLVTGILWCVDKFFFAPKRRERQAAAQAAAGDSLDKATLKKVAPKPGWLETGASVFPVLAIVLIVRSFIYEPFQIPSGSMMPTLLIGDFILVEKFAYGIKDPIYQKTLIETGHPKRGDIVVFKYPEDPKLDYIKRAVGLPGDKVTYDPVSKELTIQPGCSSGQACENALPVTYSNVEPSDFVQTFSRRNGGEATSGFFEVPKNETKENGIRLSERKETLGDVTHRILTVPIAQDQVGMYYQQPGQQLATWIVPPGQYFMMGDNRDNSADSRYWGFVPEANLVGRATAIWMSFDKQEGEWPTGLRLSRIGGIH
# Sequence of S. aureus SPase (P0A070 whole entry): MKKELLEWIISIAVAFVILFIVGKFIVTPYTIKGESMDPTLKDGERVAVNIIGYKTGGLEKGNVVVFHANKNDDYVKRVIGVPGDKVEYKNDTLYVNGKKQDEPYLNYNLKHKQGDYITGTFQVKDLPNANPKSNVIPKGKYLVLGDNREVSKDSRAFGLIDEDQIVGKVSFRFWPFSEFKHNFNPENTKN
Compound,MIC (μg/mL) E. coli [1] [µg/mL],MIC (μg/mL) S. aureus [2] [µg/mL],IC50 (S. aureus SPase) [nM],IC50 (E. coli SPase) [nM]
CCCCc1ccc(-c2ccc(C(=O)N[C@@H](CCCCN)C(=O)N[C@@H](C)C(=O)N[C@@H](CC(C)C)C(=O)N[C@@H](C)B(O)O)cc2)cc1 [Compound 191],16,20,50000,38000
CCCCc1ccc(-c2ccc(C(=O)NCCC(=O)N[C@@H](CCCCN)C(=O)N(C)[C@H](C(=O)N[C@@H](C)C(=O)N[C@@H](CC(N)=O)C(=O)N[C@@H](C)B3OC4C[C@@H]5C[C@@H](C5(C)C)[C@]4(C)O3)[C@@H](C)O)cc2)cc1 (stereo partly drawn) [Compound 192] ({Biphenylcarbonyl(4'-Bu)-βAla}-K[NMeT]AN-X1),16,0.59,12,27
CCCCc1ccc(-c2ccc(C(=O)NCCC(=O)N[C@@H](CCCCN)C(=O)N[C@H](C(=O)N[C@@H](C)C(=O)N[C@@H](CCCCN)C(=O)N[C@@H](C)B3OC4C[C@@H]5C[C@@H](C5(C)C)[C@]4(C)O3)[C@@H](C)O)cc2)cc1 (stereo partly drawn) [Compound 193] ({Biphenylcarbonyl(4'-Bu)-βAla}-KTAK-X1),5,0.16,3,15
CCCCc1ccc(-c2ccc(C(=O)NCCC(=O)N[C@@H](CCCCN)C(=O)N[C@H](C(=O)N[C@@H](C)C(=O)N[C@H](C(=O)N[C@@H](C)B3O[C@@H]4C[C@@H]5C[C@@H](C5(C)C)[C@]4(C)O3)C(C)C)[C@@H](C)O)cc2)cc1 [Compound 194] ({Biphenylcarbonyl(4'-Bu)-βAla}-KTAV-{boroAla((+)-pinanediol)}),6.3,0.71,4.7,16
CCCCc1ccc(-c2ccc(C(=O)NCCC(=O)N[C@@H](CCCCN)C(=O)N[C@H](C(=O)N[C@@H](C)C(=O)N[C@@H](CCC(=O)O)C(=O)N[C@@H](C)B3OC4C[C@@H]5C[C@@H](C5(C)C)[C@]4(C)O3)[C@@H](C)O)cc2)cc1 (stereo partly drawn) [Compound 195] ({Biphenylcarbonyl(4'-Bu)-βAla}-KTAE-X1),32,1.2,2.6,19
CCCCc1ccc(-c2ccc(C(=O)NCCC(=O)N[C@@H](CCCCN)C(=O)N[C@H](C(=O)N[C@@H](C)C(=O)N[C@@H](Cc3c[nH]cn3)C(=O)N[C@@H](C)B3OC4C[C@@H]5C[C@@H](C5(C)C)[C@]4(C)O3)[C@@H](C)O)cc2)cc1 (stereo partly drawn) [Compound 196] ({Biphenylcarbonyl(4'-Bu)-βAla}-KTAH-X1),2.5,0.66,5.7,8.8
CCCCc1ccc(-c2ccc(C(=O)NCCC(=O)N[C@@H](CCCCN)C(=O)N[C@@H](CCCCN)C(=O)N[C@@H](C)C(=O)N[C@@H](CC(N)=O)C(=O)N[C@@H](C)B3OC4C[C@@H]5C[C@@H](C5(C)C)[C@]4(C)O3)cc2)cc1 (stereo partly drawn) [Compound 197] ({Biphenylcarbonyl(4'-Bu)-βAla}-KKAN-X1),1,0.3,6.2,11
CCCCc1ccc(-c2ccc(C(=O)NCCC(=O)N[C@@H](CCCCN)C(=O)N[C@H](C(=O)N[C@@H](C)C(=O)N[C@@H](CC(C)C)C(=O)N[C@@H](C)B3OC4C[C@@H]5C[C@@H](C5(C)C)[C@]4(C)O3)[C@@H](C)O)cc2)cc1 (stereo partly drawn) [Compound 198] ({Biphenylcarbonyl(4'-Bu)-βAla}-KTAL-X1),5,0.5,8.9,42
CCCCCCCCCC(=O)NCCC(=O)N[C@@H](CCCCN)C(=O)N[C@H](C(=O)N[C@@H](C)C(=O)N[C@@H](CC(N)=O)C(=O)N[C@@H](C)B1OC2C[C@@H]3C[C@@H](C3(C)C)[C@]2(C)O1)[C@@H](C)O (stereo partly drawn) [Compound 199] ({Decanoyl-βAla}-KTAN-X1),>64,7,1.4,4.5
CCCCc1ccc(-c2ccc(C(=O)NCCC(=O)N[C@@H](CCCCN)C(=O)N[C@H](C(=O)N[C@@H](C)C(=O)N[C@@H](CC(N)=O)C(=O)N3CCC[C@H]3B3O[C@@H]4C[C@@H]5C[C@@H](C5(C)C)[C@]4(C)O3)[C@@H](C)O)cc2)cc1 [Compound 200] ({Biphenylcarbonyl(4'-Bu)-βAla}-KTAN-X7),64,>64,1200,5200
C[C@H](NC(=O)[C@H](CC(N)=O)NC(=O)[C@H](C)NC(=O)[C@@H](NC(=O)[C@H](CCCCN)NC(=O)CCNC(=O)c1ccc(-c2ccc(Cl)cc2)cc1)[C@@H](C)O)B1OC2C[C@@H]3C[C@@H](C3(C)C)[C@]2(C)O1 (stereo partly drawn) [Compound 201] ({Benzoyl(4-(4-Cl-Ph))-βAla}-KTAN-X1),64,4.6,1.9,8
CCCCCCCCCCCC(=O)NCCC(=O)N[C@@H](CCCCN)C(=O)N[C@H](C(=O)N[C@@H](C)C(=O)N[C@@H](CC(N)=O)C(=O)N[C@@H](C)B1OC2C[C@@H]3C[C@@H](C3(C)C)[C@]2(C)O1)[C@@H](C)O (stereo partly drawn) [Compound 202] ({Lauroyl-βAla}-KTAN-X1),23,1.1,3.5,7.1
CCCCc1ccc(-c2ccc(C(=O)NCCC(=O)N[C@@H](CCCCN)C(=O)N[C@H](C(=O)N[C@@H](C)C(=O)N[C@@H](CC(N)=O)C(=O)N[C@@H](CC)B3OC4C[C@@H]5C[C@@H](C5(C)C)[C@]4(C)O3)[C@@H](C)O)cc2)cc1 (stereo partly drawn) [Compound 203] ({Biphenylcarbonyl(4'-Bu)-βAla}-KTAN-X11),32,1.4,21,130
CCCCc1ccc(-c2ccc(C(=O)NCCC(=O)N[C@@H](CCCCN)C(=O)N[C@H](C(=O)N[C@@H](C)C(=O)N[C@@H](CC(N)=O)C(=O)N[C@@H](C)B(O)O)[C@@H](C)O)cc2)cc1 [Compound 204] ({Biphenylcarbonyl(4'-Bu)-βAla}-KTAN-boroAla),4.6,0.45,13,33
CCCCc1ccc(-c2ccc(C(=O)NCCC(=O)N[C@@H](CCCCN)C(=O)N[C@H](C(=O)N[C@@H](CC)C(=O)N[C@@H](CC(N)=O)C(=O)N[C@@H](CC)B3OC4C[C@@H]5C[C@@H](C5(C)C)[C@]4(C)O3)[C@@H](C)O)cc2)cc1 (stereo partly drawn) [Compound 205] ({Biphenylcarbonyl(4'-Bu)-βAla}-KT[Abu]N-X11),32,2,20,210
CCCCc1ccc(-c2ccc(C(=O)NCCC(=O)N[C@@H](CCCCN)C(=O)N[C@H](C(=O)N[C@@H](CC)C(=O)N[C@@H](CC(N)=O)C(=O)N[C@@H](C)B3OC4C[C@@H]5C[C@@H](C5(C)C)[C@]4(C)O3)[C@@H](C)O)cc2)cc1 (stereo partly drawn) [Compound 206] ({Biphenylcarbonyl(4'-Bu)-βAla}-KT[Abu]N-X1),2,0.5,5.2,6.3
CCCCc1ccc(-c2ccc(C(=O)NCCC(=O)N[C@@H](CCCCN)C(=O)N[C@@H](CCCCN)C(=O)N[C@@H](C)C(=O)N[C@@H](CCCCN)C(=O)N[C@@H](C)B3OC4C[C@@H]5C[C@@H](C5(C)C)[C@]4(C)O3)cc2)cc1 (stereo partly drawn) [Compound 207] ({Biphenylcarbonyl(4'-Bu)-βAla}-KKAK-X1),2,0.099,13,87
CCCCc1ccc(-c2ccc(C(=O)NCCC(=O)N[C@@H](CCCCN)C(=O)N3CCC[C@H]3C(=O)N[C@@H](C)C(=O)N[C@@H](CC(N)=O)C(=O)N[C@@H](C)B3OC4C[C@@H]5C[C@@H](C5(C)C)[C@]4(C)O3)cc2)cc1 (stereo partly drawn) [Compound 208] ({Biphenylcarbonyl(4'-Bu)-βAla}-KPAN-X1),4,0.31,5.7,20
CCCCc1ccc(-c2ccc(C(=O)NCCC(=O)N[C@@H](CCCCN)C(=O)N[C@H](C(=O)N[C@@H](C)C(=O)N[C@@H](CC(N)=O)C(=O)N[C@@H](C)B3OC4C[C@@H]5C[C@@H](C5(C)C)[C@]4(C)O3)c3ccc(O)cc3)cc2)cc1 (stereo partly drawn) [Compound 209] ({Biphenylcarbonyl(4'-Bu)-βAla}-K[Hpg]AN-X1),2.5,1,15,12
CCCCc1ccc(-c2ccc(C(=O)NCCC(=O)N[C@@H](CCCCN)C(=O)N[C@H](C(=O)N[C@@H](C)C(=O)N[C@@H](CC(N)=O)C(=O)N[C@@H](C)B3OC4C[C@@H]5C[C@@H](C5(C)C)[C@]4(C)O3)C(C)(C)C)cc2)cc1 (stereo partly drawn) [Compound 210] ({Biphenylcarbonyl(4'-Bu)-βAla}-K[Tle]AN-X1),4,0.71,16,56
CCCCc1ccc(-c2ccc(C(=O)NCCC(=O)N[C@@H](CCCCN)C(=O)N[C@H](C(=O)N[C@H](C(=O)N[C@@H](CC(N)=O)C(=O)N[C@@H](C)B3OC4C[C@@H]5C[C@@H](C5(C)C)[C@]4(C)O3)C(C)C)[C@@H](C)O)cc2)cc1 (stereo partly drawn) [Compound 212] ({Biphenylcarbonyl(4'-Bu)-βAla}-KTVN-X1),5,0.84,12,26
